What is called IC50 is the concentration that gives 50% inhibition.

In one test the target is human Cav2.2 (Homo sapiens, UniProt Q00975). Nature of the test: Assessment of calcium channel activity using FLIPR (Ca2+ influx in IMR32 cells). Format: cell-based.
Sequence of human Cav2.2 (Q00975 whole entry): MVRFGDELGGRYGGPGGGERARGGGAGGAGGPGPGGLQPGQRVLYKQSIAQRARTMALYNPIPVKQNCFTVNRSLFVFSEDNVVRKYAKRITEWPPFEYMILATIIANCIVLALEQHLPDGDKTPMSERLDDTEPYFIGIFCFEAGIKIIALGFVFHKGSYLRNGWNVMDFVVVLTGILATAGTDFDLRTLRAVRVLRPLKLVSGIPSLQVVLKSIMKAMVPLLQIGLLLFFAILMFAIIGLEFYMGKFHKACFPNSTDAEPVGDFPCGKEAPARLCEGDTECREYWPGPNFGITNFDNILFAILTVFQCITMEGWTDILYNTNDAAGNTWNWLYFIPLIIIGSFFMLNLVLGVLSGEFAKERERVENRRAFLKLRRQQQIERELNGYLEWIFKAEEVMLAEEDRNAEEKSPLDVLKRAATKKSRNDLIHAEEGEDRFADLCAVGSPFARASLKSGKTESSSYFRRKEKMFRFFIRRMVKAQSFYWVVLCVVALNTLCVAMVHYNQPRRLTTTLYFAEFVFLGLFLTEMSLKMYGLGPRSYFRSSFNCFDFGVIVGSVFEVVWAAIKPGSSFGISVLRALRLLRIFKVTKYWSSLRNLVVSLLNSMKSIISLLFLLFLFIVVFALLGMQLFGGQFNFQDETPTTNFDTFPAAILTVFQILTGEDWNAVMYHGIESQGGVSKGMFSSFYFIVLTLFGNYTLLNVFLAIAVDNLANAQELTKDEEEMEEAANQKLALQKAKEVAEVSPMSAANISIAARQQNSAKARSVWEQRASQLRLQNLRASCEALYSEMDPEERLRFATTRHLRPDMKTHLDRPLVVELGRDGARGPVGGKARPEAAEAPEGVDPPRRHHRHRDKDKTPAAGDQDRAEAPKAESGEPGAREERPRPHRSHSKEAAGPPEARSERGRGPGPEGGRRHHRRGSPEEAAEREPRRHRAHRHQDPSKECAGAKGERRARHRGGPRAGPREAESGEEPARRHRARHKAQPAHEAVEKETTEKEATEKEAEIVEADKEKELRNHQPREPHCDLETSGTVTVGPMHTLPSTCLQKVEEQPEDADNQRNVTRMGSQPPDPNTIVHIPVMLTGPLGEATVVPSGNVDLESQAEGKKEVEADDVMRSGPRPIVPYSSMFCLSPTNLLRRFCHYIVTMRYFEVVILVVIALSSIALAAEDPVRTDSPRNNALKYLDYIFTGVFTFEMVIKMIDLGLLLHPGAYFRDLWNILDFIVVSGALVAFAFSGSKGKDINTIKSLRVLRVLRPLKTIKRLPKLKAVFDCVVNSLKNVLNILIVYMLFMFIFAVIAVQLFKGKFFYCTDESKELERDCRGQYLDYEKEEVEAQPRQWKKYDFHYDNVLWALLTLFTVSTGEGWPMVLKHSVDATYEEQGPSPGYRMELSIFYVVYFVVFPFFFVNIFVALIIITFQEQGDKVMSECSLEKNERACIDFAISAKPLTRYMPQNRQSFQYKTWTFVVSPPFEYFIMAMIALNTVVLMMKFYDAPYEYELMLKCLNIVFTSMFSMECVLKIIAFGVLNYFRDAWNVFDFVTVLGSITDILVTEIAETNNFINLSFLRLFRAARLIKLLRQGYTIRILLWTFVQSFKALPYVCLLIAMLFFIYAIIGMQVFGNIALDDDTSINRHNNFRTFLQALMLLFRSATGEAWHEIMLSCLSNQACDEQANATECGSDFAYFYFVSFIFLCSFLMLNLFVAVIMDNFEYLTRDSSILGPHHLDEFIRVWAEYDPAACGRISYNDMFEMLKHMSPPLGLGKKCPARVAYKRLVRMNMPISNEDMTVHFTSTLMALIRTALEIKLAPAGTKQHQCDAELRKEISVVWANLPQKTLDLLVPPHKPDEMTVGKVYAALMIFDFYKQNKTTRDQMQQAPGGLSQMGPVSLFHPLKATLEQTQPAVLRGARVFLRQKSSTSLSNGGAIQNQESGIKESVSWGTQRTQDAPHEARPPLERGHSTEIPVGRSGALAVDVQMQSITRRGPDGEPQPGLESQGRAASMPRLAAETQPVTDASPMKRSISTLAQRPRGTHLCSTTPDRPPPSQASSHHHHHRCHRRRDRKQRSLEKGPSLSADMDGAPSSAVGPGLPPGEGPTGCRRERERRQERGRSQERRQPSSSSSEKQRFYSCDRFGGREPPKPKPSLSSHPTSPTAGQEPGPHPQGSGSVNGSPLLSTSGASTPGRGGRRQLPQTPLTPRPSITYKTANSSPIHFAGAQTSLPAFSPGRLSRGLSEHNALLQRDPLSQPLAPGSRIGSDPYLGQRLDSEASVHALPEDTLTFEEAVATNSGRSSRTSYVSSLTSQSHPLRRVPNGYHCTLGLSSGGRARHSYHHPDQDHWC
Sequence of human Cav2.2 (P54289 25-956 partner limits assumed): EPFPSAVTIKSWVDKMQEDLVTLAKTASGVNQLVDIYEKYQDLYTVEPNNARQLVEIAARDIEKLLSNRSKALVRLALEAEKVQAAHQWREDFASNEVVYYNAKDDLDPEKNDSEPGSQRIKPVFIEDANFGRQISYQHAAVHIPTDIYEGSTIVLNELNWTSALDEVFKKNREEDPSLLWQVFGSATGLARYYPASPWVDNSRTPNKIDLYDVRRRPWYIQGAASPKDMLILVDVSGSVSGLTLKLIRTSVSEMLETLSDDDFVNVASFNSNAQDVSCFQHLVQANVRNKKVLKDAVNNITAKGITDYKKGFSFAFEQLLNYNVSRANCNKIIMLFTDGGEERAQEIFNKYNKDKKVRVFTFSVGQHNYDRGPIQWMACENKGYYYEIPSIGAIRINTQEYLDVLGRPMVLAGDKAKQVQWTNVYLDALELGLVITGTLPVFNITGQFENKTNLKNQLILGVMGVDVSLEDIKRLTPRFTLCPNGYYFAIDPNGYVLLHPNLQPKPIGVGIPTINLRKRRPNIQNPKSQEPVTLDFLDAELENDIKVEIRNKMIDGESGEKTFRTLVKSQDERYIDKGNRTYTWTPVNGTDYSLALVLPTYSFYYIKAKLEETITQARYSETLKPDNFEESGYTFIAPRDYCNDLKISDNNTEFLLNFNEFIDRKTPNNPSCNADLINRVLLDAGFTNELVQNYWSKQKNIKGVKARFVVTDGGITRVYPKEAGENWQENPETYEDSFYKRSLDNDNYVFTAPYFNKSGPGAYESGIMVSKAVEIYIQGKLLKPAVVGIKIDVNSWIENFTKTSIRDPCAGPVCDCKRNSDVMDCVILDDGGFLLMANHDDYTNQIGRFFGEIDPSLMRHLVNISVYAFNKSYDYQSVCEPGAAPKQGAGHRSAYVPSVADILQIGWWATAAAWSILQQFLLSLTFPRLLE
Sequence of human Cav2.2 (P54289 957-1103 partner limits assumed): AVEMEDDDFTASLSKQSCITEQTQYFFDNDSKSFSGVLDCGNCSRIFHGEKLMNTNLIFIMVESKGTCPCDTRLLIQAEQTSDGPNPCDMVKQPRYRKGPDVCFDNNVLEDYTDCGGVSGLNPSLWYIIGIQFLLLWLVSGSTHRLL
Sequence of human Cav2.2 (P54284 whole entry partner): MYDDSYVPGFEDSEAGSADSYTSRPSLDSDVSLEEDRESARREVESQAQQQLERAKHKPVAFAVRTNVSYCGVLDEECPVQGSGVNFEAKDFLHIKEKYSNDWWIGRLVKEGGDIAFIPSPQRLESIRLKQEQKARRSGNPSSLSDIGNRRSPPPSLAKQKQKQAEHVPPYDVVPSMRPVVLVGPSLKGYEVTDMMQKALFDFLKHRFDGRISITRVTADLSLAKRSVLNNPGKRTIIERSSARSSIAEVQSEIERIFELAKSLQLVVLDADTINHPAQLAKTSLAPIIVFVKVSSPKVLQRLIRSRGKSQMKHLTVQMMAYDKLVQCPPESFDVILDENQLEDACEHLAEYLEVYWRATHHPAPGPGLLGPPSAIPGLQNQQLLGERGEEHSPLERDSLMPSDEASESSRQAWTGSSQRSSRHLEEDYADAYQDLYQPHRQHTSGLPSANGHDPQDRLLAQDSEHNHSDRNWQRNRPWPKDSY
Conditions: not given
An outline of the steps:
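Human neuroblastoma IMR32 cells were seeded at 1−1.2×10^5 cells/well and cultured 48 h at 37 °C before FLIPR calcium influx measurement. Percent inhibition at each concentration was calculated against the no-inhibitor signal, and IC50 came from sigmoidal dose-response fits.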
On to `CC(C)CC(C(=O)NC1CCC2CN(Cc3ccc(F)c(C(F)(F)F)c3)CC21)N(C)C(=O)OC(C)(C)C` [Example 312, tert-butyl(S)-1-((3aS,4R,6aR)-2-(4-fluoro-3-(trifluoromethyl)benzyl)octahydrocyclopenta[c]pyrrol-4-ylamino)-4-methyl-1-oxopentan-2-ylmethyl)carbamate], for which the IC50 was 1.59 µM.
For the molecule `CC(C)[C@@H](C(=O)N[C@@H]1CC[C@H]2CN(Cc3cccc(C(F)(F)F)c3)C[C@H]21)N(C)C(=O)OC(C)(C)C` [Example 316, tert-butyl methyl((S)-3-methyl-1-oxo-1-((3aS,4R,6aR)-2-(3-(trifluoromethyl)benzyl)octahydrocyclopenta[c]pyrrol-4-ylamino)butan-2-yl)carbamate], the half-maximal inhibitory concentration (IC50) is 2.02 µM.
Still for that read-out and setting: for `CC(C)C[C@@H](C(=O)N[C@@H]1CC[C@H]2CN(S(C)(=O)=O)C[C@H]21)N1CCCC1` [Example 346, (2S)-4-methyl-N-[(3aS,4R,6aR)-2-(methylsulfonyl)octahydrocyclopenta[c]pyrrol-4-yl]-2-pyrrolidin-1-ylpentanamide] the value was more than 30 µM.
Same read-out and setting: for `CC(C)C[C@@H](C(=O)N[C@@H]1CC[C@H]2CN(S(=O)(=O)C3CC3)C[C@H]21)N1CCCC1` [Example 347, (2S)-N-[(3aS,4R,6aR)-2-(cyclopropylsulfonyl)octahydrocyclopenta[c]pyrrol-4-yl]-4-methyl-2-pyrrolidin-1-ylpentanamide] the value was more than 5.2 µM; for `CN[C@@H](CC(C)C)C(=O)N[C@H]1CC[C@@H]2CN(Cc3ccccc3)C[C@@H]21` [Example 348, N^1-[(3aR,4S,6aS)-2-benzyloctahydrocyclopenta[c]pyrrol-4-yl]-N^2-methyl-L-leucinamide], more than 30 µM; for `O=C(N[C@@H]1CC[C@H]2CN(Cc3ccccc3)C[C@H]21)[C@@H]1CCCCN1` [Example 350, (2S)-N-[(3aS,4R,6aR)-2-benzyloctahydrocyclopenta[c]pyrrol-4-yl]piperidine-2-carboxamide], more than 30 µM.
Regarding `CN[C@H](C(=O)N[C@@H]1CC[C@H]2CN(Cc3ccccc3)C[C@H]21)C(C)C` [Example 351, N^1-[(3aS,4R,6aR)-2-benzyloctahydrocyclopenta[c]pyrrol-4-yl]-N^2-methyl-L-valinamide], the half-inhibitory concentration (IC50) is more than 30 µM.
For `CCC[C@H](NC)C(=O)N[C@@H]1CC[C@H]2CN(Cc3ccccc3)C[C@H]21` [Example 352, N^1-[(3aS,4R,6aR)-2-benzyloctahydrocyclopenta[c]pyrrol-4-yl]-N^2-methyl-L-norvalinamide], the IC50 is more than 30 µM.
On to `CC[C@H](C)[C@H](NC)C(=O)N[C@H]1CC[C@@H]2CN(Cc3ccccc3)C[C@@H]21` [Example 353, N^1-[(3aR,4S,6aS)-2-benzyloctahydrocyclopenta[c]pyrrol-4-yl]-N^2-methyl-L-isoleucinamide], for which the half-maximal inhibitory concentration (IC50) was more than 30 µM.
With `CC[C@H](C)[C@H](NC)C(=O)N[C@@H]1CC[C@H]2CN(Cc3ccccc3)C[C@H]21` [Example 354, N^1-[(3aS,4R,6aR)-2-benzyloctahydrocyclopenta[c]pyrrol-4-yl]-N^2-methyl-L-isoleucinamide], the IC50 is more than 30 µM.

Still in this test, the particulars now being: read-out: IC50 (μM) or percent inhibition (* indicates 3 minute incubation, otherwise 60 minute); IC50; 60 minute pre-incubation with compound; IMR32 cells, 80 mM KCl depolarization.
As to `CCC[C@@H](C(=O)N[C@@H]1CC[C@@H]2CN(S(=O)(=O)c3ccc(C(F)(F)F)cc3)C[C@@H]21)N(C)C(=O)OC(C)(C)C` [Example 328, tert-butyl methyl((S)-1-oxo-1-((3aR,4R,6aS)-2-(4-(trifluoromethyl)phenylsulfonyl)octahydrocyclopenta[c]pyrrol-4-ylamino)pentan-2-yl)carbamate], the IC50 is 1.39 µM.
With `CC(C)C[C@@H](C(=O)N[C@@H]1CC[C@H]2CNC[C@H]21)N(C)C(=O)OC(C)(C)C` [Example 349, tert-butyl methyl((S)-4-methyl-1-((3aS,4R,6aR)-octahydrocyclopenta[c]pyrrol-4-ylamino)-1-oxopentan-2-yl)carbamate], the IC50 was 17.6 µM.

(Values after patent US8691865B2 (AbbVie Inc., priority 2008, dated 2014).)
